Reference: patent publication US9708314B2, “Heterocyclic amide compound” (NISSAN CHEMICAL INDUSTRIES, LTD., priority 2013, dated 2017)

Tests used:
Assay type in all cases: in vivo
Veronica persica = assay: Test Example 4: herbicidal effect by application to foliage (diluvial soil, plastic box); conditions: application to foliage; for herbicidal effect, R (Veronica persica): 320 g/ha
Outline: (§1)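 Scores run from 0 (herbicidal ratio ≤5%) to 5 (≥90%, almost fully withered) and were assessed three weeks after foliar spraying. Seedlings had been raised for 14 days at 25-30° C in sterilized diluvial soil before treatment, with the emulsion diluted in water to the stated g/ha dose.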

Stellaria media = assay: as above; conditions: application to foliage; for herbicidal effect, P (Stellaria media): 320 g/ha
Outline: as §1

Setaria viridis = assay: as above; conditions: application to foliage; for herbicidal effect, G (Setaria viridis): 320 g/ha
Outline: as §1

Alopecurus myosuroides = assay: as above; conditions: application to foliage; for herbicidal effect, J (Alopecurus myosuroides): 320 g/ha
Outline: as §1

Amaranthus retroflexus = assay: as above; conditions: application to foliage; for herbicidal effect, N (Amaranthus retroflexus): 320 g/ha
Outline: as §1

Avena fatua = assay: as above; conditions: application to foliage; for herbicidal effect, I (Avena fatua): 320 g/ha
Outline: as §1

Apera spica-venti. = assay: as above; conditions: application to foliage; for herbicidal effect, L (Apera spica-venti.): 320 g/ha
Outline: as §1

[1] = test system: Echinochloa crus-galli var. crus-galli; assay: as above; conditions: application to foliage; for herbicidal effect, H (Echinochloa crus-galli var. crus-galli): 320 g/ha
Outline: as §1

Digitaria ciliaris = assay: as above; conditions: application to foliage; for herbicidal effect, F (Digitaria ciliaris): 320 g/ha
Outline: as §1

Galium spurium = assay: as above; conditions: application to foliage; for herbicidal effect, Q (Galium spurium): 320 g/ha
Outline: as §1

Abutilon theophrasti = assay: as above; conditions: application to foliage; for herbicidal effect, M (Abutilon theophrasti): 320 g/ha
Outline: as §1

Lolium multiflorum Lam. = assay: as above; conditions: application to foliage; for herbicidal effect, K (Lolium multiflorum Lam.): 320 g/ha
Outline: as §1

Chenopodium album = assay: as above; conditions: application to foliage; for herbicidal effect, O (Chenopodium album): 320 g/ha
Outline: as §1

Triticum aestivum = assay: Test Example 4: effect on crop by application to foliage (diluvial soil, plastic box); conditions: application to foliage; for effect on crop, e (Triticum aestivum): 320 g/ha
Outline: as §1

Glycine max = assay: as above; conditions: application to foliage; for effect on crop, c (Glycine max): 320 g/ha
Outline: as §1

[2] = test system: directly sowed Oryza sativa; assay: as above; conditions: application to foliage; for effect on crop, d (directly sowed Oryza sativa): 320 g/ha
Outline: as §1

Brassica campestris L. = assay: as above; conditions: application to foliage; for effect on crop, g (Brassica campestris L.): 320 g/ha
Outline: as §1

[3] = test system: Beta vulgaris ssp. vulgaris; assay: as above; conditions: application to foliage; for effect on crop, f (Beta vulgaris ssp. vulgaris): 320 g/ha
Outline: as §1

Zea mays = assay: as above; conditions: application to foliage; for effect on crop, b (Zea mays): 320 g/ha
Outline: as §1

Monochoria vaginalis = assay: Test Example 1: herbicidal activity, application before weed generation in submerged conditions; conditions: Seventeenth Table; for C: Monochoria vaginalis (herbicidal effect grade): Application herbicide amount 320 g/ha
Outline: (§2)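 Alluvial soil in Wagner pots flooded to 4 cm water depth; weed seeds sown and 2.5 leaf stage rice seedlings transplanted. Emulsion diluted in water applied to water surface on sowing day at stated g/ha. Greenhouse 25° C. to 30° C.; effects scored 0–5 by herbicidal ratio after three weeks.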

Scirpus juncoides = assay: as above; conditions: Seventeenth Table; for B: Scirpus juncoides (herbicidal effect grade): Application herbicide amount 320 g/ha
Outline: as §2

[4] = test system: Echinochloa oryzacola Vasing.; assay: as above; conditions: Seventeenth Table; for A: Echinochloa oryzicola Vasing. (herbicidal effect grade): Application herbicide amount 320 g/ha
Outline: as §2

[5] = application herbicide amount 320 g/ha

With `Cc1nnc2c(C(=O)Nc3nnnn3C)ccc(C(F)(F)F)n12` [2-002] the “R: herbicidal effect on Veronica persica” value (Veronica persica; [5]) was 5 (Herbicidal ratio of 90% or more (almost completely withered)), the “P: herbicidal effect on Stellaria media” value (Stellaria media; [5]) was 5 (Herbicidal ratio of 90% or more (almost completely withered)) and the “G: herbicidal effect on Setaria viridis” value (Setaria viridis; [5]) was 3 (Herbicidal ratio of 40% or more and less than 70%). The “J: herbicidal effect on Alopecurus myosuroides” value (Alopecurus myosuroides; [5]) was 1 (Herbicidal ratio of 5% or more and less than 20%), the “N: herbicidal effect on Amaranthus retroflexus” value (Amaranthus retroflexus; [5]) was 5 (Herbicidal ratio of 90% or more (almost completely withered)) and the “I: herbicidal effect on Avena fatua” value (Avena fatua; [5]) was 3 (Herbicidal ratio of 40% or more and less than 70%). The “L: herbicidal effect on Apera spica-venti.” value (Apera spica-venti.; [5]) was 1 (Herbicidal ratio of 5% or more and less than 20%), the “H: herbicidal effect on Echinochloa crus-galli var. crus-galli” value [1, 5] was 5 (Herbicidal ratio of 90% or more (almost completely withered)) and the “F: herbicidal effect on Digitaria ciliaris” value (Digitaria ciliaris; [5]) was 4 (Herbicidal ratio of 70% or more and less than 90%). For the same compound, the “Q: herbicidal effect on Galium spurium” value (Galium spurium; [5]) was 4 (Herbicidal ratio of 70% or more and less than 90%), the “M: herbicidal effect on Abutilon theophrasti” value (Abutilon theophrasti; [5]) was 5 (Herbicidal ratio of 90% or more (almost completely withered)) and the “K: herbicidal effect on Lolium multiflorum Lam.” value (Lolium multiflorum Lam.; [5]) was 1 (Herbicidal ratio of 5% or more and less than 20%). The “O: herbicidal effect on Chenopodium album” value (Chenopodium album; [5]) was 5 (Herbicidal ratio of 90% or more (almost completely withered)), the “e: effect on crop, Triticum aestivum” value (Triticum aestivum; [5]) was 1 (Herbicidal ratio of 5% or more and less than 20%) and the “d: effect on crop, Glycine max” value (Glycine max; [5]) was 3 (Herbicidal ratio of 40% or more and less than 70%). The “b: effect on crop, directly sowed Oryza sativa” value [2, 5] was 2 (Herbicidal ratio of 20% or more and less than 40%), the “g: effect on crop, Brassica campestris L.” value (Brassica campestris L.; [5]) was 4 (Herbicidal ratio of 70% or more and less than 90%) and the “f: effect on crop, Beta vulgaris ssp. vulgaris” value [3, 5] was 5 (Herbicidal ratio of 90% or more (almost completely withered)). For the same compound, the “c: effect on crop, Zea mays” value (Zea mays; [5]) was 0 (Herbicidal ratio of 5% or less (almost no effect)), the “C: Monochoria vaginalis (herbicidal effect grade)” value (Monochoria vaginalis) was 3 (Herbicidal ratio of 40% or more and less than 70%) and the “B: Scirpus juncoides (herbicidal effect grade)” value (Scirpus juncoides) was 3 (Herbicidal ratio of 40% or more and less than 70%). For the same compound, the “A: Echinochloa oryzicola Vasing. (herbicidal effect grade)” value [4] was 2 (Herbicidal ratio of 20% or more and less than 40%).

With `CSCCNc1nnc2c(C(=O)Nc3nnnn3C)ccc(C(F)(F)F)n12` [2-080] the “herbicidal effect, R (Veronica persica)” value (Veronica persica) was 5 (Herbicidal ratio of 90% or more (almost completely withered)), the “herbicidal effect, P (Stellaria media)” value (Stellaria media) was 4 (Herbicidal ratio of 70% or more and less than 90%) and the “herbicidal effect, G (Setaria viridis)” value (Setaria viridis) was 3 (Herbicidal ratio of 40% or more and less than 70%). The “herbicidal effect, J (Alopecurus myosuroides)” value (Alopecurus myosuroides) was 1 (Herbicidal ratio of 5% or more and less than 20%), the “herbicidal effect, N (Amaranthus retroflexus)” value (Amaranthus retroflexus) was 5 (Herbicidal ratio of 90% or more (almost completely withered)) and the “herbicidal effect, I (Avena fatua)” value (Avena fatua) was 1 (Herbicidal ratio of 5% or more and less than 20%). The “herbicidal effect, L (Apera spica-venti.)” value (Apera spica-venti.) was 3 (Herbicidal ratio of 40% or more and less than 70%), the “herbicidal effect, H (Echinochloa crus-galli var. crus-galli)” value [1] was 5 (Herbicidal ratio of 90% or more (almost completely withered)) and the “herbicidal effect, F (Digitaria ciliaris)” value (Digitaria ciliaris) was 5 (Herbicidal ratio of 90% or more (almost completely withered)). The “herbicidal effect, Q (Galium spurium)” value (Galium spurium) was 4 (Herbicidal ratio of 70% or more and less than 90%), the “herbicidal effect, M (Abutilon theophrasti)” value (Abutilon theophrasti) was 5 (Herbicidal ratio of 90% or more (almost completely withered)) and the “herbicidal effect, K (Lolium multiflorum Lam.)” value (Lolium multiflorum Lam.) was 0 (Herbicidal ratio of 5% or less (almost no effect)). The “herbicidal effect, O (Chenopodium album)” value (Chenopodium album) was 5 (Herbicidal ratio of 90% or more (almost completely withered)), the “effect on crop, e (Triticum aestivum)” value (Triticum aestivum) was 0 (Herbicidal ratio of 5% or less (almost no effect)) and the “effect on crop, c (Glycine max)” value (Glycine max) was 0 (Herbicidal ratio of 5% or less (almost no effect)). For the same compound, the “effect on crop, d (directly sowed Oryza sativa)” value [2] was 4 (Herbicidal ratio of 70% or more and less than 90%), the “effect on crop, g (Brassica campestris L.)” value (Brassica campestris L.) was 5 (Herbicidal ratio of 90% or more (almost completely withered)) and the “effect on crop, f (Beta vulgaris ssp. vulgaris)” value [3] was 5 (Herbicidal ratio of 90% or more (almost completely withered)). The “effect on crop, b (Zea mays)” value (Zea mays) was 3 (Herbicidal ratio of 40% or more and less than 70%), the “C: Monochoria vaginalis (herbicidal effect grade)” value (Monochoria vaginalis) was 0 (Herbicidal ratio of 5% or less (almost no effect)) and the “B: Scirpus juncoides (herbicidal effect grade)” value (Scirpus juncoides) was 0 (Herbicidal ratio of 5% or less (almost no effect)). The “A: Echinochloa oryzicola Vasing. (herbicidal effect grade)” value [4] was 3 (Herbicidal ratio of 40% or more and less than 70%).

In the case of `COc1ccc(N(C)c2nnc3c(C(=O)Nc4nnnn4C)ccc(C(F)(F)F)n23)cc1` [2-099], the “herbicidal effect, R (Veronica persica)” value (Veronica persica) is reported as 5 (Herbicidal ratio of 90% or more (almost completely withered)), the “herbicidal effect, P (Stellaria media)” value (Stellaria media) is reported as 5 (Herbicidal ratio of 90% or more (almost completely withered)) and the “herbicidal effect, G (Setaria viridis)” value (Setaria viridis) is reported as 4 (Herbicidal ratio of 70% or more and less than 90%). For the same compound, the “herbicidal effect, J (Alopecurus myosuroides)” value (Alopecurus myosuroides) was 0 (Herbicidal ratio of 5% or less (almost no effect)), the “herbicidal effect, N (Amaranthus retroflexus)” value (Amaranthus retroflexus) was 4 (Herbicidal ratio of 70% or more and less than 90%) and the “herbicidal effect, I (Avena fatua)” value (Avena fatua) was 2 (Herbicidal ratio of 20% or more and less than 40%). For the same compound, the “herbicidal effect, L (Apera spica-venti.)” value (Apera spica-venti.) was 1 (Herbicidal ratio of 5% or more and less than 20%), the “herbicidal effect, H (Echinochloa crus-galli var. crus-galli)” value [1] was 5 (Herbicidal ratio of 90% or more (almost completely withered)) and the “herbicidal effect, F (Digitaria ciliaris)” value (Digitaria ciliaris) was 5 (Herbicidal ratio of 90% or more (almost completely withered)). The “herbicidal effect, Q (Galium spurium)” value (Galium spurium) was 4 (Herbicidal ratio of 70% or more and less than 90%), the “herbicidal effect, M (Abutilon theophrasti)” value (Abutilon theophrasti) was 4 (Herbicidal ratio of 70% or more and less than 90%) and the “herbicidal effect, K (Lolium multiflorum Lam.)” value (Lolium multiflorum Lam.) was 1 (Herbicidal ratio of 5% or more and less than 20%). For the same compound, the “herbicidal effect, O (Chenopodium album)” value (Chenopodium album) was 5 (Herbicidal ratio of 90% or more (almost completely withered)), the “effect on crop, e (Triticum aestivum)” value (Triticum aestivum) was 0 (Herbicidal ratio of 5% or less (almost no effect)) and the “effect on crop, c (Glycine max)” value (Glycine max) was 0 (Herbicidal ratio of 5% or less (almost no effect)). The “effect on crop, d (directly sowed Oryza sativa)” value [2] was 4 (Herbicidal ratio of 70% or more and less than 90%), the “effect on crop, g (Brassica campestris L.)” value (Brassica campestris L.) was 4 (Herbicidal ratio of 70% or more and less than 90%) and the “effect on crop, f (Beta vulgaris ssp. vulgaris)” value [3] was 5 (Herbicidal ratio of 90% or more (almost completely withered)). The “effect on crop, b (Zea mays)” value (Zea mays) was 3 (Herbicidal ratio of 40% or more and less than 70%), the “C (Monochoria vaginalis) herbicidal ratio grade” value (Monochoria vaginalis; [5]) was 5 (Herbicidal ratio of 90% or more (almost completely withered)) and the “B (Scirpus juncoides) herbicidal ratio grade” value (Scirpus juncoides; [5]) was 4 (Herbicidal ratio of 70% or more and less than 90%). For the same compound, the “A (Echinochloa oryzicola Vasing.) herbicidal ratio grade” value [4, 5] was 5 (Herbicidal ratio of 90% or more (almost completely withered)).
